Assay results taken from patent US12679807B2 (MERCK SHARP & DOHME LLC, priority 2020, dated 2026).

Target: T1, GCS enzyme contained within Golgi preparations isolated from human A375 malignant melanoma skin cells (Homo sapiens, UniProt Q16739)
T1 construct: endogenous levels of GCS enzyme contained within Golgi preparations isolated from human A375 malignant melanoma skin cells; endogenous in cells; host or cells: A375 human malignant melanoma cells (crude Golgi preparation)
T1 sequence (Q16739 1-394): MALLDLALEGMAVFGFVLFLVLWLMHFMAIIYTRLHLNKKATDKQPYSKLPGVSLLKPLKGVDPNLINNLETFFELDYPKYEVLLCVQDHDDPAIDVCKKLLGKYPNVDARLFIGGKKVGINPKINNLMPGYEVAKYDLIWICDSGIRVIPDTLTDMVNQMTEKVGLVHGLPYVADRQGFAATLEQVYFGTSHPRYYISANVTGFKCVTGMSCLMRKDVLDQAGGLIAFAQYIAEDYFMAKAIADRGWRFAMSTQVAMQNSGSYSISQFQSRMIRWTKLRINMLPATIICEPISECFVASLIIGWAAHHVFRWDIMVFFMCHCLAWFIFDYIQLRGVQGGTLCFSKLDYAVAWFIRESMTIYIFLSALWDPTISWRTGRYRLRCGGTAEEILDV
Assay: UDP-Glo glucosylceramide synthase biochemical assay
Conditions: crude Golgi preparation from A375 cells; C6 ceramide and UDP-glucose substrates; 20 h incubation at room temperature; UDP detected by luminescence
In short: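 Endogenous enzyme in A375 Golgi preparations (1.5 μg total protein) was preincubated 30 min with compound, then reacted 20 h at room temperature with UDP-glucose and ceramide.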

Compound	EC50 [nM]
Cc1nnc(-c2ccc(-c3c(F)cc(Cl)c4c3C(=O)N([C@H](C3CC3)C(C)(C)O)C4)cc2)o1 [Compound 41, (R)-4-chloro-2-(1-cyclopropyl-2-hydroxy-2-methylpropyl)-6-fluoro-7-(4-(5-methyl-1,3,4-oxadiazol-2-yl)phenyl)isoindolin-1-one]	0.25
Cc1c(C(=O)Nc2cccc3c2C(=O)N(C(C2CC2)C(C)(C)O)C3)cccc1C(F)(F)F (single isomer, unassigned) [Compound 120, (R or S)-N-(2-(1-cyclopropyl-2-hydroxy-2-methylpropyl)-3-oxoisoindolin-4-yl)-2-methyl-3-(trifluoromethyl)benzamide]	10
Cc1cccc(C(=O)Nc2cccc3c2C(=O)N(C(C2CC2)C(C)(C)O)C3)c1Cl (single isomer, unassigned) [Compound 113, (R or S)-2-chloro-N-(2-(1-cyclopropyl-2-hydroxy-2-methylpropyl)-3-oxoisoindolin-4-yl)-3-methylbenzamide]	1.2
Cc1nnc(-c2ccc(-c3cccc4c3C(=O)N([C@H](C3CC3)C(C)(C)O)C4)c(F)c2C)o1 [Compound 72, (R)-2-(1-cyclopropyl-2-hydroxy-2-methylpropyl)-7-(2-fluoro-3-methyl-4-(5-methyl-1,3,4-oxadiazol-2-yl)phenyl)isoindolin-1-one]	0.59
CC(C)(O)[C@@H](C1CC1)N1Cc2cccc(-c3cnn(-c4ccncc4)c3)c2C1=O [Compound 89, (R)-2-(1-cyclopropyl-2-hydroxy-2-methylpropyl)-7-(1-(pyridin-4-yl)-1H-pyrazol-4-yl)isoindolin-1-one]	420
C[C@@H](N1Cc2cccc(NC(=O)c3c(Cl)ccc(F)c3Cl)c2C1=O)C(C)(C)O [Compound 123, (R)-2,6-dichloro-3-fluoro-N-(2-(3-hydroxy-3-methylbutan-2-yl)-3-oxoisoindolin-4-yl)benzamide]	26
CC(C)(O)C(C1CC1)N1Cc2cccc(NC(=O)c3ccnc4c3CCC4)c2C1=O (single isomer, unassigned) [Compound 158, (R or S)-N-(2-(1-cyclopropyl-2-hydroxy-2-methylpropyl)-3-oxoisoindolin-4-yl)-6,7-dihydro-5H-cyclopenta[b]pyridine-4-carboxamide]	1
CC(C)(O)C(C1CC1)N1Cc2cccc(/C=C/c3ccc(F)cc3F)c2C1=O (racemic) [Compound 4, (R and S)-(E)-2-(1-cyclopropyl-2-hydroxy-2-methylpropyl)-7-(2,4-difluorostyryl)isoindolin-1-one]	290
COc1cc(Cl)nc(-c2cccc3c2C(=O)N([C@H](C2CC2)C(C)(C)O)C3)c1 [Compound 93, (R)-7-(6-chloro-4-methoxypyridin-2-yl)-2-(1-cyclopropyl-2-hydroxy-2-methylpropyl)isoindolin-1-one]	55
Cc1nnc(-c2ccc(-c3cccc4c3C(=O)N([C@@H](CO)C3CC3)C4)cc2)o1 [Compound 50, (R)-2-(1-cyclopropyl-2-hydroxyethyl)-7-(4-(5-methyl-1,3,4-oxadiazol-2-yl)phenyl)isoindolin-1-one]	630
Cc1ccc(Cl)c(C(=O)Nc2cccc3c2C(=O)N([C@@H](CO)C(C)C)C3)c1F [Compound 122, (R)-6-chloro-2-fluoro-N-(2-(1-hydroxy-3-methylbutan-2-yl)-3-oxoisoindolin-4-yl)-3-methylbenzamide]	18
COC(C)(C)[C@@H](C1CC1)N1Cc2cccc(-c3ccc(-c4nnc(C)o4)cc3)c2C1=O [Compound 57, (R)-2-(1-cyclopropyl-2-methoxy-2-methylpropyl)-7-(4-(5-methyl-1,3,4-oxadiazol-2-yl)phenyl)isoindolin-1-one]	260
CC(C)[C@H](CO)N1Cc2cccc(NC(=O)c3nc(Cl)ccc3C(F)(F)F)c2C1=O [Compound 132, (R)-6-chloro-N-(2-(1-hydroxy-3-methylbutan-2-yl)-3-oxoisoindolin-4-yl)-3-(trifluoromethyl)picolinamide]	46
Cn1cc(-c2ccc(-c3cccc4c3C(=O)N([C@H](C3CC3)C(C)(C)O)C4)cc2)nn1 [Compound 94, 2-[(1R)-1-cyclopropyl-2-hydroxy-2-methyl-propyl]-7-[4-(1-methyltriazol-4-yl)phenyl]isoindolin-1-one]	24
Cc1nnc(-c2ccc(-c3cc(F)cc4c3C(=O)N([C@H](C3CC3)C(C)(C)O)C4)c(F)c2)o1 [Compound 27, (R)-2-(1-cyclopropyl-2-hydroxy-2-methylpropyl)-5-fluoro-7-(2-fluoro-4-(5-methyl-1,3,4-oxadiazol-2-yl)phenyl)isoindolin-1-one]	1.4
CN1C(=O)Cc2cc(-c3cccc4c3C(=O)N([C@H](C3CC3)C(C)(C)O)C4)ccc21 [Compound 85, (R)-5-(2-(1-cyclopropyl-2-hydroxy-2-methylpropyl)-3-oxoisoindolin-4-yl)-1-methylindolin-2-one]	8.2

Compound	EC50 [nM]
Cc1ccc(F)c(C(=O)Nc2cccc3c2C(=O)N(C(C2CC2)C(C)(C)O)C3)c1Cl (single isomer, unassigned) [Compound 110, (R or S)-2-chloro-N-(2-(1-cyclopropyl-2-hydroxy-2-methylpropyl)-3-oxoisoindolin-4-yl)-6-fluoro-3-methylbenzamide]	0.21
O=C(Nc1cccc2c1C(=O)N(C(C1CC1)C1CC1)C2)c1ccnc2c1CCC2 [Compound 121, N-(2-(dicyclopropylmethyl)-3-oxoisoindolin-4-yl)-6,7-dihydro-5H-cyclopenta[b]pyridine-4-carboxamide]	15
Cc1c(CO)noc1-c1ccc(-c2cccc3c2C(=O)N([C@H](C2CC2)C(C)(C)O)C3)cc1 [Compound 96, 2-[(1R)-1-cyclopropyl-2-hydroxy-2-methyl-propyl]-7-[4-[3-(hydroxymethyl)-4-methyl-isoxazol-5-yl]phenyl]isoindolin-1-one]	1.4
COc1ccc(-c2cccc3c2C(=O)N(C(C2CC2)C(C)(C)O)C3)cc1OC (racemic) [Compound 19, (R and S)-2-(1-cyclopropyl-2-hydroxy-2-methylpropyl)-7-(3,4-dimethoxyphenyl) isoindolin-1-one]	28
Cc1cc(-c2cccc3c2C(=O)N(C(C2CC2)C(C)(C)O)C3)cc(C)n1 (racemic) [Compound 20, (R and S)-2-(1-cyclopropyl-2-hydroxy-2-methylpropyl)-7-(2,6-dimethylpyridin-4-yl)isoindolin-1-one]	67
CC(C)(O)C(C1CC1)N1Cc2cccc(NC(=O)c3cccc4c3CCC4)c2C1=O (single isomer, unassigned) [Compound 114, (R or S)-N-(2-(1-cyclopropyl-2-hydroxy-2-methylpropyl)-3-oxoisoindolin-4-yl)-2,3-dihydro-1H-indene-4-carboxamide]	1.3
O=C(Nc1cccc2c1C(=O)N(CC1CC1)C2)c1ccnc2ccc(F)cc12 [Compound 144, N-(2-(cyclopropylmethyl)-3-oxoisoindolin-4-yl)-6-fluoroquinoline-4-carboxamide]	190
CC(C)(O)[C@@H](C1CC1)N1Cc2cccc(-c3ccc(-c4ncon4)cc3)c2C1=O [Compound 83, (R)-7-(4-(1,2,4-oxadiazol-3-yl)phenyl)-2-(1-cyclopropyl-2-hydroxy-2-methylpropyl)isoindolin-1-one]	100
Cc1nnc(-c2ccc(-c3ccnc4c3C(=O)N(C(C3CC3)C(C)(C)O)C4)cc2)o1 (single isomer, unassigned) [Compound 33, (R or S)-6-(1-cyclopropyl-2-hydroxy-2-methylpropyl)-4-(4-(5-methyl-1,3,4-oxadiazol-2-yl)phenyl)-6,7-dihydro-5H-pyrrolo[3,4-b]pyridin-5-one]	350
Cc1cc(-c2ccc(-c3cc(F)cc4c3C(=O)N([C@H](C3CC3)C(C)(C)O)C4)cc2)on1 [Compound 26, (R)-2-(1-cyclopropyl-2-hydroxy-2-methylpropyl)-5-fluoro-7-(4-(3-methylisoxazol-5-yl)phenyl)isoindolin-1-one]	1
O=C(Nc1cccc2c1C(=O)N(CC1CC1)C2)c1c(C(F)(F)F)cnc2ccccc12 [Compound 130, N-(2-(cyclopropylmethyl)-3-oxoisoindolin-4-yl)-3-(trifluoromethyl)quinoline-4-carboxamide]	40
CCOc1ccccc1C(=O)Nc1cccc2c1C(=O)N(C1CN3CCC1CC3)C2 (racemic) [Compound 107, (R and S)-2-Ethoxy-N-(3-oxo-2-(quinuclidin-3-yl)isoindolin-4-yl)benzamide]	550
O=C(Nc1cccc2c1C(=O)N(C(C1CC1)C1CC1)C2)c1cccc2c1OCC2 [Compound 145, N-(2-(dicyclopropylmethyl)-3-oxoisoindolin-4-yl)-2,3-dihydrobenzofuran-7-carboxamide]	260
Cn1cc2c(C(=O)Nc3cc(F)cc4c3C(=O)N([C@H](C3CC3)C(C)(C)O)C4)cccc2n1 [Compound 161, (R)-N-(2-(1-cyclopropyl-2-hydroxy-2-methylpropyl)-6-fluoro-3-oxoisoindolin-4-yl)-2-methyl-2H-indazole-4-carboxamide]	9.1
Cn1cc(-c2ccc(-c3ccnc4c3C(=O)N([C@H](C3CC3)C(C)(C)O)C4)cc2)cn1 [Compound 34, (R)-6-(1-cyclopropyl-2-hydroxy-2-methylpropyl)-4-(4-(1-methyl-1H-pyrazol-4-yl)phenyl)-6,7-dihydro-5H-pyrrolo[3,4-b]pyridin-5-one]	48
